This test addresses T1, SUMO1^Δ15 (Homo sapiens, UniProt P63165).
T1 construct: encoding amino acids 1–97 of mature human SUMO1; made in house; host or cells: E. coli BL21 Rosetta (DE3)
Briefly: Differential scanning fluorimetry (DSF) thermal shift. To be noted: 2 μM SUMO1^Δ15, fisetin 20 to 200 μM. In kind it is binding. The method, then: Here we used a variant of the human SUMO1 called SUMO1^Δ15 in which the N-terminal 15 amino acids of SUMO1 are removed. The first 15 amino acids of human SUMO1 are weakly conserved and reported to be unstructured, and so therefore might contribute to its instability. […] We next compared SUMO1^Δ15 directly with wild-type SUMO1.
Fluorescence-based thermal shift assays known as differential scanning fluorimetry (DSF) were performed following the general protocol described in [28]. In short, 20 μl reactions were prepared with 2 μM human SUMO1 or SUMO1^Δ15 protein exchanged in DSF buffer (50 mM Tris-Cl pH 8.0, 150 mM NaCl, 10% glycerol), 10X SYPRO Orange (ThermoFisher Scientific, Waltham, MA), and 0.3 μl of DMSO control or flavonoid dissolved in DMSO. PCR plates (white non-skirted, 96-well) were sealed with optical film, centrifuged, and incubated at 4 °C for 30 min prior to analysis. Thermal scanning (20°C for 30 s, followed by ramping from 20 °C to 90 °C at 0.5 °C/15 s) was performed using a real-time PCR setup (CFX384 Touch, Biorad, Hercules, CA) with filter sets for measurement of relative fluorescence units (RFU) at 0.5°C intervals. Tm was calculated from the maxima of the first derivative of RFU/temperature using GraphPad Prism7. For the HSF1 denaturation experiment, recombinantly expressed and affinity purified human HSF1 was exchanged in DSF buffer. […]

Each structure is given as a SMILES string.

T1 sequence (P63165 with tags, fused parts or gaps limits assumed): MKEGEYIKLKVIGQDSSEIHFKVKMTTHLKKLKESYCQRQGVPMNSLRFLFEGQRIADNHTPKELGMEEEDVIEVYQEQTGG

Consider `O=c1c(O)c(-c2ccc(O)c(O)c2)oc2cc(O)ccc12` [Fisetin, 3,3',4',7-tetrahydroxyflavone], for which the “dose-dependent effect on DSF thermogram of SUMO1^Δ15” value was “thermal destabilization”.

(Values after publication PMC7292393 (PLoS ONE, 2020).)
